From paper PMC4912218, “Targeted metabolomics of Gammarus pulex following controlled exposures to selected pharmaceuticals in water” (The Science of the Total Environment, 2016)
≈ marks a conversion by molar mass, not a printed value.

Tests used:
in vivo = conditions: in vivo
Description: From these toxicity profiles the NOAEL and the LOAEL were determined. Exposure experiments were performed in Pyrex® beakers, each containing 200 mL of AFW at 15 °C and ten adult animals (> 5 mg wet weight, ww). Live/dead animals were counted after 24 h by gently prodding and observing movement of appendages. The pharmaceutical concentrations tested were in the range of 0.01 to 250 mg L^− 1. […] Concentrations where 100, 50 and 0% of the animals died were repeated in duplicate or triplicate.

[1] = parameters: method as in Drugbank; conditions: ref Drugbank; cited from earlier work
Thamnocephalus platyurus = conditions: ref Kim et al., 2009; cited from earlier work

For `CN(C)CCC=C1c2ccccc2CCc2ccccc21` [Amitriptyline], the LC50 at 24 h (in vivo) was 41.8 mg/L (≈ 150 µM).

For `CC(C)(Oc1ccc(CCNC(=O)c2ccc(Cl)cc2)cc1)C(=O)O` [Bezafibrate], the LC50 at 24 h (in vivo) is listed as > 1 mg/L and the Water solubility [1] is listed as “Insoluble”.

For `NC(=O)N1c2ccccc2C=Cc2ccccc21` [Carbamazepine], the LC50 at 24 h (in vivo) is listed as > 112 mg/L and the “24 h- LC50 T. platyurus” value (Thamnocephalus platyurus) is listed as >100 mg/L.

In the case of `CC(C)(Oc1ccc(Cl)cc1)C(=O)O` [Clofibric acid], the LC50 at 24 h (in vivo) is listed as > 250 mg/L and the Water solubility [1] is listed as 0.5825 mg/mL.

In the case of `O=C(O)Cc1ccccc1Nc1c(Cl)cccc1Cl` [Diclofenac, Sodium diclofenac], the Water solubility [1] is given as 50 mg/mL.

For `CC(C(=O)O)c1ccc(-c2ccccc2)c(F)c1` (stereo not drawn) [Flurbiprofen], the LC50 at 24 h (in vivo; Gammarus pulex) was > 8 mg/L.

In the case of `Cc1ccc(C)c(OCCCC(C)(C)C(=O)O)c1` [Gemfibrozil], the LC50 at 24 h (in vivo) is listed as 9.84 mg/L (≈ 39.3 µM) and the Water solubility [1] is listed as <1 mg/mL.

For `CC(C)Cc1ccc(C(C)C(=O)O)cc1` (stereo not drawn) [Ibuprofen], the LC50 at 24 h (in vivo) is given as 44 mg/L (≈ 213 µM) and the Water solubility [1] is given as 100 mg/mL.

For `CN(C)CCCN1c2ccccc2CCc2ccccc21` [Imipramine], the LC50 at 24 h (in vivo) is listed as 3.85 mg/L (≈ 13.7 µM) and the Water solubility [1] is listed as 50 mg/mL.
